ChEMBL document CHEMBL1201862, “PubChem BioAssay data set” (2004)
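Cultured in 96-well plates, cells were exposed to test compound for 48 hours across five concentrations. At the GI50, growth is halved.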 Active and inactive are the calls of the source. Cut-off read from the data, not from the text of the source: active = GI50 up to about 1.1 µM and inactive = higher.

How the values were obtained:
Test in all cases: NCI tumour cell line growth inhibition, 48 h
[1] = tested on: KM12
[2] = tested on: SK-OV-3
[3] = tested on: MCF7
[4] = tested on: HOP-92
[5] = tested on: OVCAR-5
[6] = tested on: SK-MEL-28
[7] = tested on: A549
[8] = tested on: HOP-62
[9] = tested on: OVCAR-4
[10] = tested on: SF-268
[11] = tested on: OVCAR-8
[12] = tested on: HT-29
[13] = tested on: HCT-15
[14] = tested on: UO-31
[15] = tested on: PC-3
[16] = tested on: RXF 393
[17] = tested on: SN12C
[18] = tested on: HCC 2998
[19] = tested on: OVCAR-3
[20] = tested on: Malme-3M

SMILES | GI50 [1] | GI50 [2] | GI50 [3] | GI50 [4] | GI50 [5] | GI50 [6] | GI50 [7] | GI50 [8] | GI50 [9] | GI50 [10] | GI50 [11] | GI50 [12] | GI50 [13] | GI50 [14] | GI50 [15] | GI50 [16] | GI50 [17] | GI50 [18] | GI50 [19] | GI50 [20]
CCCCCCCCCCCCCCCCCCOP(=O)([O-])OC1CC[N+](C)(C)CC1 [PERIFOSINE] | 0.53 µM (active) | 5.64 µM (inactive) | 15.7 µM (inactive) | 3.38 µM (inactive) | 2.52 µM (inactive) | 17.9 µM (inactive) | 10.7 µM (inactive) | 7.53 µM (inactive) | > 9.95 µM (inactive) | 9.89 µM (inactive) | 14.7 µM (inactive) | 3.56 µM (inactive) | 2.48 µM | 8.91 µM (inactive) | 0.873 µM (active) | 1.79 µM (inactive) | 4.6 µM (inactive) | 5.16 µM (inactive) | 13.2 µM (inactive) | 7.06 µM (inactive)
O=[N+]([O-])C(/C=C(\Cl)[N+](=O)[O-])=C(N1CCOCC1)N1CCOCC1 | > 100 µM (inactive) | > 100 µM (inactive) | 17.6 µM (inactive) | 25.4 µM (inactive) | 21.2 µM (inactive) | > 100 µM (inactive) | 19.4 µM (inactive) | 20.9 µM (inactive) | 25.9 µM (inactive) | 35.5 µM (inactive) | > 100 µM (inactive) | 33.4 µM (inactive) | > 100 µM | 36.6 µM (inactive) | > 100 µM (inactive) | 31.5 µM (inactive) | > 100 µM (inactive) | 24 µM (inactive) | 19.7 µM (inactive) | 27.2 µM (inactive)
Cc1ccc2nc(-c3ccc(C(C)(C)C)cc3)oc(=O)c2c1 | 7.38 µM (inactive) | 22.9 µM (inactive) | 23.9 µM (inactive) | 29 µM (inactive) | 28.8 µM (inactive) | 27.4 µM (inactive) | 14.6 µM (inactive) | 27.9 µM (inactive) | 20.7 µM (inactive) | 24.5 µM (inactive) | 16.9 µM (inactive) | 19.6 µM (inactive) | 16.4 µM | 26.6 µM (inactive) | 20.7 µM (inactive) | 36.5 µM (inactive) | 38.8 µM (inactive) | 14.6 µM (inactive) | 21.4 µM (inactive) | 21.6 µM (inactive)
Cc1occc1/C(S)=N\c1ccc(Cl)c(COC(C)(C)C)c1 | 16.7 µM (inactive) | 17.1 µM (inactive) | 17.1 µM (inactive) | 15.7 µM (inactive) | 19.4 µM (inactive) | 16.5 µM (inactive) | 19.3 µM (inactive) | 18.3 µM (inactive) | 15.3 µM (inactive) | 17.9 µM (inactive) | 17.7 µM (inactive) | 15.7 µM (inactive) | 17.2 µM | 13.1 µM (inactive) | 14.5 µM (inactive) | 14.9 µM (inactive) | 14.4 µM (inactive) | 18.2 µM (inactive) | 15.1 µM (inactive) | 16.5 µM (inactive)
CCOC(=O)C(C)(C)C(O)C(C)C (stereo not given) | > 100 µM (inactive) | > 100 µM (inactive) | > 100 µM (inactive) | > 100 µM (inactive) | > 100 µM (inactive) | > 100 µM (inactive) | > 100 µM (inactive) | > 100 µM (inactive) | > 100 µM (inactive) | > 100 µM (inactive) | > 100 µM (inactive) | > 100 µM (inactive) | > 100 µM | > 100 µM (inactive) | > 100 µM (inactive) | > 100 µM (inactive) | > 100 µM (inactive) | > 100 µM (inactive) | > 100 µM (inactive) | > 100 µM (inactive)
CN(CCCNC(=O)c1nn(-c2ccccc2)c2c1ccc1ccccc12)CCCNC(=O)c1nn(-c2ccccc2)c2c1ccc1ccccc12 | 2.16 µM (inactive) | 1.83 µM (inactive) | 1.8 µM (inactive) | 1.83 µM (inactive) | 2.3 µM (inactive) | 1.74 µM (inactive) | 1.84 µM (inactive) | 1.86 µM (inactive) | 1.82 µM (inactive) | 1.98 µM (inactive) | 1.85 µM (inactive) | 1.84 µM (inactive) | 1.84 µM | 1.52 µM (inactive) | 1.52 µM (inactive) | 1.76 µM (inactive) | 1.85 µM (inactive) | 1.31 µM (inactive) | 1.5 µM (inactive) | 1.77 µM (inactive)
C[N+](C)(C)CC1CCc2ccccc2C1=O (stereo not given) | 10.8 µM (inactive) | 18.6 µM (inactive) | 1.64 µM (inactive) | 7.35 µM (inactive) | 16.1 µM (inactive) | 8.89 µM (inactive) | 26.3 µM (inactive) | 26.4 µM (inactive) | 4.75 µM (inactive) | 17.3 µM (inactive) | 17.1 µM (inactive) | 6.03 µM (inactive) | 3.04 µM | 18.3 µM (inactive) | 15.5 µM (inactive) | 14.2 µM (inactive) | 8.43 µM (inactive) | 15.3 µM (inactive) | 4.49 µM (inactive) | 1.8 µM (inactive)
CO/C=C(/C(=O)OC)c1ccccc1[C@H]1C[C@@H]1c1ccc(OC)cc1 | 18.4 µM (inactive) | 17.8 µM (inactive) | 32.1 µM (inactive) | 9.33 µM (inactive) | 41.1 µM (inactive) | 18.1 µM (inactive) | 20.8 µM (inactive) | 33.9 µM (inactive) | 8.05 µM (inactive) | 25.1 µM (inactive) | 28.6 µM (inactive) | 14.9 µM (inactive) | 19.2 µM | 26.4 µM (inactive) | 22.1 µM (inactive) | 49.9 µM (inactive) | 32.1 µM (inactive) | 17.2 µM (inactive) | 16.3 µM (inactive) | 15.6 µM (inactive)
CCOC(=O)c1cc(NC(=O)c2ccccc2)c(=O)n2c(cc3c(Cl)cccc32)c1O | > 100 µM (inactive) | > 100 µM (inactive) | > 100 µM (inactive) | > 100 µM (inactive) | > 100 µM (inactive) | > 100 µM (inactive) | > 100 µM (inactive) | > 100 µM (inactive) | > 100 µM (inactive) | > 100 µM (inactive) | > 100 µM (inactive) | > 100 µM (inactive) | > 100 µM | > 100 µM (inactive) | > 100 µM (inactive) | > 100 µM (inactive) | > 100 µM (inactive) | > 100 µM (inactive) | > 100 µM (inactive) | > 100 µM (inactive)
